The assay has as its system immobilised mucin receptor peptide (YVTSAPDTRPAPGST, the epitope sequence from the mucin molecule). Nature of the assay: Equilibrium dialysis binding of I125-labelled EPPT peptides to immobilised mucin receptor peptide. The following applies: 24-48 hours at room temperature, FIGS. 2 and 3. As to the method:
Preparation of immobilised mucin receptor peptide. 7.5 mg of YVTSAPDTRPAPGST (SEQ ID No 18) (the epitope sequence from the mucin molecule) was dissolved in 100 mM sodium phosphate buffer pH8. This was mixed with 7.5 mg of bovine serum albumin (BSA) and made up to 0.5 ml with buffer. 5 μl of 25% glutaraldehye was added, mixed and left to stand at room temperature for 15 minutes. A further 2.5 μl of glutaraldehyde was then added and the mixture left for a further 15 minutes.
Following the incubation, 100 μl of 1M glycine pH6 was added and left for 10 minutes to quench the glutaraldehyde. The reaction mixture was then aliquoted into 100 μl portions and stored at -20° C. until use.
Radiolabelling of EPPT peptides prior to binding assays. Peptides were dissolved in phosphate buffered saline, 100 mM sodium phosphate pH8, or 5% DMSO in sodium phosphate. […] 1 ml fractions were collected from the eluate and assayed for radioactivity.
Binding of EPPT peptides to immobilised mucin receptor peptide. […] Samples are removed from both sides of the membrane and assayed for the presence of radioactivity. […] Following incubation and equilibration, samples were removed from the dialysis module and counted for the presence of I^125. The radioactivity was then converted to amount of peptide for the purposes of determining the amount bound to the immobilised receptor peptide.

“Also recorded” adds a separate entry of the source.

Take “H-EPPTRTFAY-OH [EPPTRTFAY, NH2-EPPTRTFAY-COOH]”: the “binding to the mucin receptor peptide” value is “no real binding; also recorded: does not itself appear to bind”.

These data come from patent US6107469A, “Minimum recognition unit of a pem mucin tandem repeat specific monoclonal antibody” (Cancer Therapeutics Limited, priority 1991, dated 2000).
